Experimental data taken from US20220389013A1, “PYRIDOPYRIMIDINONE COMPOUNDS AND APPLICATIONS THEREOF” (BeBetter Med Inc., priority 2020, published 2022).

Assays:
[1] = Pharmacokinetic (PK) experiment in rats by gavage; format: in vivo; settings: rat, plasma, po, male SD rats, 20 mg/kg; for AUC(0-t): read-out: AUC0-24
Method: Male SD rats, weighing 180-250 g, were fasted overnight before the test and stomach administrated with the test compound at 20 mg/kg. 15 minutes, 30 minutes, and 1, 2, 4, 6, 8, and 24 hours after administration, blood was taken from the end of the tail of the fracture, about 0.3 mL per time point, then placed in a centrifuge tube containing K2-EDTA, and centrifuged (2000 g, 10 min, at 4° C.). Plasma was collected and stored in an ultra-low temperature freezer at −80° C. 50 μL of plasma samples were vortexed with 135 μL of acetonitrile (containing 1 μg/mL internal standard) for protein precipitation and centrifuged, and the supernatant was collected for LC-MS/MS analysis.
After the rats oral administrated with the Pyridopyrimidinone compounds provided by the present disclosure, the absorption is good, and the blood exposure is relatively high. […] Cmax refers to the maximum plasma concentration, T1/2 is the half-life, AUC0-24 refers to the area under the 0-24 hour time-concentration curve, and AUC0-inf refers to the area under the 0-Inf time-concentration curve.

[2] = system: H358 (KRAS G12C); assay: Tumor cell proliferation inhibition assay (CellTiter-Glo), H358; format: cell-based, Human; settings: 10% fetal bovine serum
Method: (§1) The H358, H23 or MIA-Paca2 cells were digested, centrifuged and resuspended, and the cell density was measured with a Scepter automatic cell counter. Cells were diluted to a solution containing 44,000 cells per milliliter, then added to a 96-well culture plate at 90 μL per well. The 96-well plate was placed in a 5% CO2 incubator at 37° C., and after the cells were cultured for 24 hours, different concentrations of the compounds to be tested were added. Cells were incubated with compounds in the presence of 10% fetal bovine serum for 72 hours. The inhibition of cell growth was assessed by measuring ATP levels by using the CellTiter-Glo Luminescent Cell Viability Assay Kit (details in manufacturer's instructions). In brief, 30 μL of CellTiter-Glo reagent was added to each well and the plate was shaken for 10 minutes to induce cell lysis, then the fluorescent signal was detected and recorded with a Fluoroskan Ascent FL (Thermo). Maximum signal values were obtained from cells treated with DMSO for 72 hours. Minimum signal values were obtained with medium only (zero cell number). Inhibition rate %=(maximum signal value-compound signal value)/(maximum signal value-minimum signal value)×100%. Data were processed by using Graphpad prism5 software. IC50 values were calculated using a sigmoidal dose-response curve.

[3] = system: MIA-Paca2 (KRAS G12C); assay: Tumor cell proliferation inhibition assay (CellTiter-Glo), MIA-Paca2; format: cell-based, Human; settings: 10% fetal bovine serum
Method: as §1

[4] = system: H23 (KRAS G12C); assay: Tumor cell proliferation inhibition assay (CellTiter-Glo), H23; format: cell-based, Human; settings: 10% fetal bovine serum
Method: as §1

[5] = target: T1, KRAS-G12C/SOS1 (Homo sapiens, UniProt P01116, G12C); assay: HTRF KRAS-G12C/SOS1 binding assay; settings: 2 hours room temperature
T1 construct: purchased Cisbio #63ADK000CB16PEG
T1 sequence (P01116 1-188 isoform P01116-2 G12C): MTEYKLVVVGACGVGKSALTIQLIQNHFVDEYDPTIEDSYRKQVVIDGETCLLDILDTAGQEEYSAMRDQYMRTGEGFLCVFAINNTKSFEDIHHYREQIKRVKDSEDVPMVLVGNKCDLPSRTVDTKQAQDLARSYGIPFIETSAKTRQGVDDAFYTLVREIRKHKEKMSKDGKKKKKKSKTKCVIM
Method: 2) Diluted the compound to be tested with diluent into 10× stock solution, starting from a concentration of 10000 nM, diluting in 4-fold gradient and a total of 6 concentration gradients.
After incubated at room temperature for 15 minutes, added pre-mixed 5 uL of anti-Tag1-Tb^3+ and 5 uL of anti-Tag2-XL665. Sealed the plate and incubated at room temperature for 2 hours.
Data were processed by using Graphpad prism software.

| SMILES | AUC(0-inf) [1] [ng·h/mL] | Cmax [1] [ng/mL] | Tmax [1] [h] | half-life [1] [h] | AUC(0-t) [1] [ng·h/mL] | IC50 ([2]; 72 hours) [nM] | IC50 ([3]; 72 hours) [nM] | IC50 ([4]; Homo sapiens, 72 h) [nM] | melting point [°C] | IC50 ([4]; 72 hours) [nM] | IC50 ([2]; Homo sapiens, NCI-H358, 72 h) [nM] | IC50 ([3]; Homo sapiens, MIA PaCa-2, 72 h) [nM] | IC50 [5] [nM] |
| --- | --- | --- | --- | --- | --- | --- | --- | --- | --- | --- | --- | --- | --- |
| C=CC(=O)N1CCN(c2nc(=O)n(-c3c(C)ccnc3C(C)C)c3nc(-c4c(F)c(F)cc5ccoc45)c(Cl)cc23)[C@@H](C)C1 [Compound 103, 4-((S)-4-acryloyl-2-methylpiperazin-1-yl)-6-chloro-7-(5,6-difluorobenzofuran-7-yl)-1-(2-isopropyl-4-methylpyridin-3-yl)pyrido[2,3-d]pyrimidin-2(1H)-one] | 9420 | 3310 | 1 | 3.77 | 9400 | < 10 | 10 to 50 | < 10 |  |  |  |  |  |
| C=CC(=O)N1C[C@H](C)N(c2nc(=O)n(-c3c(C)ccnc3C(C)C)c3nc(-c4c(F)c(F)cc5ccoc45)c(Cl)cc23)C[C@H]1C (atropisomer, axis not shown; (P)) [Compound 104-2, 4-((2S,5R)-4-acryloyl-2,5-dimethylpiperazin-1-yl)-6-chloro-7-(5,6-difluorobenzofuran-7-yl)-1(P)-(2-isopropyl-4-methylpyridin-3-yl)pyrido[2,3-d]pyrimidin-2(1H)-one] |  |  |  |  |  | 100 to 500 | 100 to 500 |  | 153 to 162 | 10 to 50 |  |  |  |
| C=CC(=O)N1C[C@H](C)N(c2nc(=O)n(-c3c(C)ccnc3C(C)C)c3nc(-c4c(F)c(F)cc5ccoc45)c(Cl)cc23)C[C@H]1C [Compound 104, 4-((2S,5R)-4-acryloyl-2,5-dimethylpiperazin-1-yl)-6-chloro-7-(5,6-difluorobenzofuran-7-yl)-1-(2-isopropyl-4-methylpyridin-3-yl)pyrido[2,3-d]pyrimidin-2(1H)-one] | 13000 | 2110 | 2 | 2.46 | 13000 | < 10 | 10 to 50 | < 10 |  |  |  |  |  |
| C=CC(=O)N1CCN(c2nc(=O)n(-c3c(C)ccnc3C(C)C)c3nc(-c4c(F)ccc5c4OCC5)c(F)cc23)[C@@H](C)C1 [Compound 79, 4-((S)-4-acryloyl-2-methylpiperazin-1-yl)-6-fluoro-7-(6-fluoro-2,3-dihydrobenzofuran-7-yl)-1-(2-isopropyl-4-methylpyridin-3-yl)pyrido[2,3-d]pyrimidin-2(1H)-one] |  |  |  |  |  |  |  |  |  |  | 10 to 50 | 10 to 50 | 100 to 500 |
| C=CC(=O)N1C[C@H](C)N(c2nc(=O)n(-c3c(C)ccnc3C(C)C)c3nc(-c4c(F)c(F)cc5ccoc45)c(F)cc23)C[C@H]1C (atropisomer, axis not shown; (P)) [Compound 91-2, 4-((2S,5R)-4-acryloyl-2,5-dimethylpiperazin-1-yl)-7-(5,6-difluorobenzofuran-7-yl)-6-fluoro-1(P)-(2-isopropyl-4-methylpyridin-3-yl)pyrido[2,3-d]pyrimidin-2(1H)-one] |  |  |  |  |  | > 500 | > 500 |  | 161 to 173 | 50 to 100 |  |  |  |
| C=CC(=O)N1CCN(c2nc(=O)n(-c3c(C)ccnc3C(C)C)c3nc(-c4c(F)ccc5ccoc45)c(F)cc23)[C@@H](C)C1 [Compound 70, 4-((S)-4-acryloyl-2-methylpiperazin-1-yl)-6-fluoro-7-(6-fluorobenzofuran-7-yl)-1-(2-isopropyl-4-methylpyridin-3-yl)pyrido[2,3-d]pyrimidin-2(1H)-one] |  |  |  |  |  |  |  |  |  |  | 10 to 50 | 10 to 50 | 100 to 500 |
| C=CC(=O)N1C[C@H](C)N(c2nc(=O)n(-c3c(C)ccnc3C(C)C)c3nc(-c4c(F)ccc5ccoc45)c(Cl)cc23)C[C@H]1C (atropisomer, axis not shown; (P)) [Compound 90-2, 4-((2S,5R)-4-acryloyl-2,5-dimethylpiperazin-1-yl)-6-chloro-7-(6-fluorobenzofuran-7-yl)-1(P)-(2-isopropyl-4-methylpyridin-3-yl)pyrido[2,3-d]pyrimidin-2(1H)-one] |  |  |  |  |  | 50 to 100 | 50 to 100 |  | 152 to 161 | < 10 |  |  |  |
